Source: patent US20140094424A1, “MICROBICIDAL COMPOSITIONS AND METHODS OF PRODUCTION USE THEREOF” (priority 2011, published 2014)

Experiments:
[1] = test system: creatinine biosensor (creatinine amidohydrolase, creatinine amidinohydrolase and sarcosine oxidase); assay: Effect on enzymatic activity of a creatinine biosensor (rate of O2% decrease); assay type: biochemical; conditions: 40 mM propionate, FIG. 2
Protocol: In FIG. 1, the effects of various concentrations of gentamicin on the enzymatic activity of a creatinine biosensor (comprising the three enzymes creatinine amidohydrolase, creatinine amidinohydrolase and sarcosine oxidase) were determined. In FIG. 2, the effects of various concentrations of propionate on the enzymatic activity of a creatinine biosensor (comprising three enzymes) were determined.
In both instances, a decreasing rate of O2% is an indicator of enzyme activity; the faster the rate of O2% decrease, the higher enzymatic activity is.

[2] = Dissolution of antibiotic in Wash NEXT reagent; assay type: physicochemical; conditions: 1% in Wash NEXT base pool

CCC(=O)O [propionate]
effect on enzymatic activity of the three enzymes in the creatinine biosensor [1]: did not substantially affect the enzymatic activity

CO[C@@H]1[C@@H](OC(N)=O)[C@@H](O)[C@H](Oc2ccc3c(O)c(NC(=O)c4ccc(O)c(CC=C(C)C)c4)c(=O)oc3c2C)OC1(C)C [novobiocin]
dissolution in the Wash reagent [2]: neither antibiotic completely dissolved in the Wash reagent
